Bounds are passed on as bounds.

The text below walks through data of paper PMC12311729, “Probing the Mechanism of L‑DOPA 2,3-Dioxygenase Using Synthetic Derivatives of 3,4-Dihydroxyhydrocinnamic Acid” (ACS Omega, 2025).

Series [1] can be described thus: Cyclic voltammetry (redox potentials on a GCE). It counts as physicochemical. Particulars: for (E p)a Oxidation / (E p)c Reduction / E1/2 / Ipa/Ipc / ΔE p: GCE (d = 2 mm). The source says: Reduction and oxidation potentials were experimentally performed by cyclic voltammetry (CV) at biological pH 7.4, as previously described. All samples were run on a CH Instruments 600E Potentiostat in a one-compartment cell equipped with a three-electrode system arrangement. The three-electrode system included a saturated calomel electrode as the reference electrode, a platinum wire as the auxiliary electrode, and a glassy carbon electrode (GCE, d = 2 mm) as the working electrode. The GCE was polished between each sample scan with an aqueous slurry of alumina powder on a microcloth pad. The electrodes were rinsed with distilled water prior to the next scan. All scans were conducted under nitrogen for oxygen displacement and at room temperature (rt, 25 ± 1 °C). All samples were prepared as close to the scan as possible (approximately 2 min each). Each sample (5 mL) contained 0.1 mM catecholic substrate and 1 μM DMSO in 0.1 M phosphate buffer at a pH of 7.4 or 6.0. […] The cyclic voltammograms for the compounds at both pH 6.0 and 7.4 are available in Figures S40–S51.

Series [2] deals with L-DOPA 2,3-dioxygenase from S. lincolnensis (LmbB1) (Streptomyces lincolnensis, UniProt Q54354). As to the kind of experiment: UV-visible steady-state assay of L-DOPA 2,3-dioxygenase (LmbB1). Type of series: biochemical. Particulars: for kSP, O2 (μM^-1 min^-1) at pH 7.5 relative to L-DOPA x 100 for LmbB1: percentage of the value for L-DOPA. As for the experimental part: (§1) Purified, reconstituted L-DOPA 2,3-dioxygenases were assessed for activity by monitoring the cleavage of catecholic substrates using UV–visible spectroscopy. 3,4-Dihydroxyhydrocinnamic acid (DHHCA, 3) was purchased from Sigma-Aldrich. 6-CyanoDHHCA (5) and 6-bromoDHHCA (4) were synthesized as described above.
(§2) Molecular oxygen (AirGas) was bubbled directly into the reaction buffer through a glass-bonded silica gas diffuser (Bubblemac Industries, Inc.) or as a gas mixture blended with air (AirGas). Solutions were bubbled with oxygen for several minutes prior to use and for the duration of the experiment. To determine the K M for oxygen (i.e., K MO2), L-DOPA 2,3-dioxygenases (0.25–4.0 μM) were reacted with a saturating concentration of the catecholic substrate DHHCA/6-X-DHHCA derivatives (2–10× the K M sufficient to achieve k cat) and various oxygen concentrations (21–100% or 270–1300 μM at 22 °C). The concentration of oxygen was varied by changing the percentage of oxygen in the blend using a galvanic oxygen sensor and oxygen monitor (AirGas) and then bubbling solutions, as described above. Molecular oxygen percentages were converted to molar concentrations using a reference temperature of 22 °C. The reaction of L-DOPA 2,3-dioxygenases with DHHCA/6-X-DHHCA derivatives as a function of oxygen concentration was followed by the appearance of the steady-state cleavage product by using UV–visible spectroscopy.
(§3) The extinction coefficients for steady-state cleavage products of DHHCA and synthetic 6-X-DHHCA derivatives were determined by reacting various concentrations of DHHCA/6-X-DHHCA derivatives at 22 °C with a 10-fold stoichiometric excess of enzyme (quantified by Fe^II–see Reconstitution) in 50 mM HEPES buffer with 154 mM NaCl at pH 7.5, bubbled with 100% oxygen to a final concentration of 780–910 μM, depending on the volume of oxygenated buffer that comprised the reaction (60–70%). Substrate solutions were prepared from authentic synthetic standards using an analytical balance, and reactions were run to completion as assessed by the appearance of the steady-state product. The λmax and extinction coefficients of DHHCA, 6-cyanoDHHCA, and 6-bromoDHHCA were determined herein as ε380 = 40 740 ± 820 M^–1cm^–1, ε385 = 33 256 ± 484 M^–1cm^–1, and ε380 = 35 282 ± 1190 M^–1cm^–1, respectively (Figure S52).
(§4) Steady-state kinetic data were obtained through a UV–visible spectroscopic assay. Initial rates were obtained from the slopes of the linear regions of the progress curves and plotted versus substrate concentration to yield a hyperbola, which was analyzed using the Michaelis–Menten expression and nonlinear least-squares fitting (NLSF) with Origin 6.0 (Microcal). Two possible derivations of the Michaelis–Menten expression were used: 1) the traditional expression y = k cat × x/(K M + x), where y is Rate/E 0 or the rate of product formation (μM/min) divided by the starting enzyme concentration (μM), x is substrate concentration (μM) and k SP (also known as k cat × K M ^–1)–that is, the second-order rate constant of enzyme and substrate–is extracted from the fitted constants; or 2) the alternative derivation that extracts k SP and k cat directly from the fit: y = (k SP × x)/((1 + k SP × x)/k cat), and where y is Rate/E 0 or the rate of product formation (μM/min) divided by the starting enzyme concentration (μM), x is substrate concentration (μM), k SP is equivalent to k cat×K M ^–1, and K M is extracted from k cat/k cat×K M ^–1.

In series [3] the target is L-DOPA 2,3-dioxygenase from S. hygroscopicus jingganensis (ShjDDO) (Streptomyces hygroscopicus, UniProt H2JL11). As to the kind of experiment: UV-visible steady-state assay of L-DOPA 2,3-dioxygenase (ShjDDO). It counts as biochemical. The note with it: for kSP, O2 (μM^-1 min^-1) at pH 7.5 relative to L-DOPA x 100 for ShjDDO: percentage of the value for L-DOPA. As for the experimental part: as §1, §2, §3, §4
Sequence of L-DOPA 2,3-dioxygenase from S. hygroscopicus jingganensis (ShjDDO) (H2JL11 1-162): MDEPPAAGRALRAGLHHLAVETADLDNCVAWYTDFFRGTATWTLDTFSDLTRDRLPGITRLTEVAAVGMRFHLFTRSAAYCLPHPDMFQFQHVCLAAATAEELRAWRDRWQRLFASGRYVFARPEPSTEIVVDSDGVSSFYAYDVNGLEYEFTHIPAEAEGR

Sequence of L-DOPA 2,3-dioxygenase from S. lincolnensis (LmbB1) (Q54354 entry or part of it): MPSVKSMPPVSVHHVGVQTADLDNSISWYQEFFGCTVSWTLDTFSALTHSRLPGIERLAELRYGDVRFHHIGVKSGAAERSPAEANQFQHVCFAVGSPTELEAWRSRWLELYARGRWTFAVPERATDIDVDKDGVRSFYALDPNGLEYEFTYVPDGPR

In the case of `N#Cc1cc(O)c(O)cc1CCC(=O)O` [6-CyanoDHHCA (5), 3-(2-cyano-4,5-dihydroxyphenyl) propanoic acid], the “(E p)a Oxidation” value in series [1] (pH 6.0) amounted to 358 mV; in series [1] (pH 7.4) it was 272 mV. The “(E p)c Reduction” value in series [1] (pH 6.0) is 260 mV; in series [1] (pH 7.4), 147 mV. Besides, the E1/2 is 309 mV in series [1] (pH 6.0) and 209.5 mV in series [1] (pH 7.4). In addition, the Ipa/Ipc in series [1] (pH 6.0) is 3.92; in series [1] (pH 7.4) it was 1.96. Further, the ΔE p in series [1] (pH 6.0) is on record as 98 mV; in series [1] (pH 7.4) it was 125 mV. Also, in series [1] (percentage of the value for L-DOPA), the “E1/2 (mV) at pH 7.4 relative to L-DOPA x 100” value amounted to 104%. Moreover, the “activity / turnover as substrate” value in series [2] (LmbB1, aerobic reaction observed by UV–visible spectroscopy) is given as “measurable activity”; in series [3] (ShjDDO, aerobic reaction observed by UV–visible spectroscopy) it was “measurable activity”. Further, the “kcat at 22 °C and 100% O2 saturation” value in series [2] (S. lincolnensis enzyme, pH 7.5) is on record as 6.7 × 10^–4 ± 2.8 × 10 ^–5 sec^–1; in series [3] (S. hygroscopicus jingganensis enzyme, pH 7.5), 1.1 × 10^–3 ± 1.0 × 10 ^–4 sec^–1. Besides, the “kSP,O2 × 10^2 at 22 °C” value in series [2] (S. lincolnensis enzyme, values are kSP × 10^2) is reported as 1.4 × 10^–2 ± 3.0 × 10 ^–3 μM^–1 min^–1; in series [3] (S. hygroscopicus jingganensis enzyme, values are kSP × 10^2), 4.0 × 10^–2 ± 6.0 × 10 ^–3 μM^–1 min^–1. In addition, the “kSP catechol × 10^2 at 22 °C” value in series [2] (S. lincolnensis enzyme, values are kSP × 10^2, kSP = kcat/KM) is 3.1 × 10^–2 ± 3.9 × 10 ^–3 μM^–1 min^–1; in series [3] (S. hygroscopicus jingganensis enzyme, values are kSP × 10^2, kSP = kcat/KM), 2.8 × 10^–2 ± 7.1 × 10 ^–3 μM^–1 min^–1. Also, the entries for the “kSP, O2 (μM^-1 min^-1) at pH 7.5 relative to L-DOPA x 100 for LmbB1” value in series [2] (listed as 6-cyanoDHHCA) and in series [2] (listed as 6-cyanoDHHCA (5)) were 0.02% and < 0.1%, respectively. Besides, the “kSP, O2 (μM^-1 min^-1) at pH 7.5 relative to L-DOPA x 100 for ShjDDO” value is 0.03% in series [3] (listed as 6-cyanoDHHCA) and < 0.1% in series [3] (listed as 6-cyanoDHHCA (5)).
